Data from patent US4918064A, “Phenyl glycines for use in reducing neurotoxic injury” (G. D. Searle & Co., priority 1987, dated 1990).

Tests used:
[1] = test system: chick embryo retina; experiment: In Vitro Chick Retina Assay (excitotoxic lesions by NMDA or KA); format: cell-based; details: vs. NMDA 200 μM, 30 min at 37° C.
Description: [Olney, J. W., Price, M. T., Fuller, T. A., Labruyere, J., Samson, L., Carpenter, M., Mahan, K., "The Anti-Excitotoxic Effects of Certain Anesthetics, Analgesics and Sedative-Hypnotics", Neuroscience Letters, 68, 29-34, (1986)].
Using an approach similar to that earlier described [Reif-Lehrer, L., Bergenthal, J. and Hanninen, L., "Effects of Monosodium Glutamate on Chick Embryo Retina in Culture", Invest. Ophthalmol., 14, 114-12, (1975)], 15-day-old chick embryos were decapitated and their eyes removed and cut into quadrants after excising the cornea and removing the lens, vitreous and iris. The retinal quadrants were then gently separated from the pigment epithelium and incubated for 30 minutes at 37° C. in a standard balanced salt solution (BSS) to which test compounds, either excitatory amino acid agonists or potential antagonists or both, were added in various concentrations. As described elsewhere [Olney, J. W., Price, M. T., Samson, L. and Labruyere, J., "The Role of Specific Ions in Glutamate Neurotoxicity". Neurosci. […]

[2] = test system: NMDA-induced focal potentials, hippocampal slices; experiment: In Vitro Hippocampal Slice Assay (NMDA-induced focal potentials); format: cell-based, Sprague-Dawley albino rat; details: Rattus norvegicus; 100 μM NMDA pressure ejections, recorded in CA1
Experimental: Hippocampal slices were prepared from male, Sprague-Dawley albino rats (100-300 gm) and maintained as described previously [Ganong, A. H., Lanthorn, T. H., Cotman, C. W., "Kynurenic Acid Synaptic and Acidic Amino Acid-Induced Responses in the Rat Hippocampus and Spinal Cord", Brain Research, 273 170-174 (1983)]. The hippocampus was removed in the cold and sliced to a thickness of 450 microns on a McIlwain tissue chopper in experimental medium (124 mM NaCl, 2.5 mM KCl, 1.0 mM KH2 PO4, 26.4 mM NaHCO3, 2 mM CaCl2, 1.5 mM MgSO4, and 10 mM D-glucose) with 10 mM Hepes. The slices were quickly transferred to a static bath and rinsed with experimental medium (without Hepes) and maintained at 34°-35° C. in a humidified chamber with 95% oxygen and 5% carbon dioxide. As needed, slices were transferred from the static bath to a small perfusion chamber where they were secured with an upper net and completely submerged in a continuously flowing experimental medium (2.0 ml/min). The Schaffer collateral/commissural-CAl (S/C-CAl) synaptic response was stimulated (0.05 Hz; 0.01 msec. single duration shock) with bipolar electrodes (Rhodes, Inc.) from stratum radiatum at the CA2-CA3 border. Evoked field EPSPs and drug-induced focal potentials were recorded in the middle portion of CAl. […]

NC(C(=O)O)c1ccc(CP(=O)(O)O)cc1 (centres unmarked) [Example VI, 4-(Phosphonomethyl)phenylglycine]
concentration for full antagonism against NMDA (complete prevention of toxic activity) [1]: 50 µM
IC50 [2]: 4 µM
